Assay results taken from publication PMC2651670 (Biochemistry, 2009).

Tests used:
[1] = molecular target: complex I (NADH:ubiquinone oxidoreductase), hydrophobic (physiological) Q-site (Bos taurus, UniProt P03887+P17694+P42026); test: NADH:DQ oxidoreduction, NADH absorbance; assay type: biochemical
subcomplex Iλ = subcomplex Iλ (Bos taurus, UniProt P25708); test: NADH:Q1 oxidoreduction; assay type: biochemical; conditions: 100 μM NADH, 0.4 mg/mL asolectin, with or without 2.3 μM rotenone, pH 7.55, 32 °C; flavin site
Chain of subcomplex Iλ (P04394 33-249): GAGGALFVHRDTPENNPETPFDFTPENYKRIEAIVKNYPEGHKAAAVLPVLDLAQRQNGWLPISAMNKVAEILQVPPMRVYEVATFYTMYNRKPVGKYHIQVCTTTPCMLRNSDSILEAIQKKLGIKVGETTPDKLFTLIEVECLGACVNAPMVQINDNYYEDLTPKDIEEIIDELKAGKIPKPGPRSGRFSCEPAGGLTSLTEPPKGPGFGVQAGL
Chain of subcomplex Iλ (P25708 21-464): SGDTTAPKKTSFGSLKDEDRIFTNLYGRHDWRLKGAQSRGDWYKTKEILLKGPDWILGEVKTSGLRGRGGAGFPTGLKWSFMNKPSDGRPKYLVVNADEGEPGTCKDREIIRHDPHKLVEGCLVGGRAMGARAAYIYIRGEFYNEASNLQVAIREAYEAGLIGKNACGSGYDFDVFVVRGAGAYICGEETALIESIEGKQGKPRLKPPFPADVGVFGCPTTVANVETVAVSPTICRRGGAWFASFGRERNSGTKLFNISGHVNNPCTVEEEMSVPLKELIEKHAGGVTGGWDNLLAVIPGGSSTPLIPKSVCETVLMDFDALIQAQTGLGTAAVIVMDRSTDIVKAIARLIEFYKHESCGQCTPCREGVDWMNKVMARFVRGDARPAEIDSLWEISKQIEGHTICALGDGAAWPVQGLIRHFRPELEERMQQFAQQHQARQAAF
Chain of subcomplex Iλ (P15690 24-727, further chain): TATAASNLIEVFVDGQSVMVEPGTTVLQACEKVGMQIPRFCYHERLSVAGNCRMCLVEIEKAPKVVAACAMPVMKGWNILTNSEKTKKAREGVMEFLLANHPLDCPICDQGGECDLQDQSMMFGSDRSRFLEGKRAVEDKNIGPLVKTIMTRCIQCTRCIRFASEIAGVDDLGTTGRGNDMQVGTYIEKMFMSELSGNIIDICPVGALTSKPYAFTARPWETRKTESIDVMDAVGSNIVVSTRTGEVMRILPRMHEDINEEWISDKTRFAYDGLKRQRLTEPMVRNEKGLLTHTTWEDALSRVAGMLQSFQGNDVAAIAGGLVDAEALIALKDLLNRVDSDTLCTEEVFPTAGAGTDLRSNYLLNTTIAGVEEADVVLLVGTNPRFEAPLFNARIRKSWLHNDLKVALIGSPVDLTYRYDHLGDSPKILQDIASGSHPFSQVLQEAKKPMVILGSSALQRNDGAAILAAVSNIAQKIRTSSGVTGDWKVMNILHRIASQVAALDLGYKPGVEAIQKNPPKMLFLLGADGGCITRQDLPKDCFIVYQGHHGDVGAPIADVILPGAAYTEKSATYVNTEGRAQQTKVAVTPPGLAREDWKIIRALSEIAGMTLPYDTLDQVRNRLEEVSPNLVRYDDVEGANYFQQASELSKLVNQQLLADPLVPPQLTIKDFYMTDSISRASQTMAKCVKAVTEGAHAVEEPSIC

Chain of complex I (NADH:ubiquinone oxidoreductase), hydrophobic (physiological) Q-site (P03887 whole entry): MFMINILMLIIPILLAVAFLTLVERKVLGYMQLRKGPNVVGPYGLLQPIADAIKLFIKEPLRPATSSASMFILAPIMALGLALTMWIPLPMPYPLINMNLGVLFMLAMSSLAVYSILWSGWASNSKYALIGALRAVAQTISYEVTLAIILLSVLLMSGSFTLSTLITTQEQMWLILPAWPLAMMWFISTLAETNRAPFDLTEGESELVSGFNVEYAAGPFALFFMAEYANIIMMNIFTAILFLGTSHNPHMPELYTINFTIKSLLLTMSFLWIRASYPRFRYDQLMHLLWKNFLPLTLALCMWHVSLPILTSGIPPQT
Chain of complex I (NADH:ubiquinone oxidoreductase), hydrophobic (physiological) Q-site (P17694 34-463): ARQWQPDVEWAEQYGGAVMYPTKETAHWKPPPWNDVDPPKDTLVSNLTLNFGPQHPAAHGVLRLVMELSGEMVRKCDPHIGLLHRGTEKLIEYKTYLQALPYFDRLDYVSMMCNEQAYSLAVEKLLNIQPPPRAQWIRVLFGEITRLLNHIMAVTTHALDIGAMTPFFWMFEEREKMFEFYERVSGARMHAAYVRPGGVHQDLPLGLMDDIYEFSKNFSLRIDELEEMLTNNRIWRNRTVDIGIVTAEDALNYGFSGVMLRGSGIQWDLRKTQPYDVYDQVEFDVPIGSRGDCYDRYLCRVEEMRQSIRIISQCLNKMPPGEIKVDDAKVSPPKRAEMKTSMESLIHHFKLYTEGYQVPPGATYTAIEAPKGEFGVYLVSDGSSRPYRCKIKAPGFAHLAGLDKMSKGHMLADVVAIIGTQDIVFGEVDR
Chain of complex I (NADH:ubiquinone oxidoreductase), hydrophobic (physiological) Q-site (P42026 38-216): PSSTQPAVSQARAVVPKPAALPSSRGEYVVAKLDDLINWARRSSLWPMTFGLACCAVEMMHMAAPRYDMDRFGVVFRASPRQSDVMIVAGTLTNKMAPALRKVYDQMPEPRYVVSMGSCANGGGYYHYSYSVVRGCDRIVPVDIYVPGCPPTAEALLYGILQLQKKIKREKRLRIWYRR

SMILES: C/C=C(\C)[C@H](O)[C@H](C)/C=C(C)/C=C/C/C(C)=C/Cc1nc(OC)c(OC)c(O)c1C [piericidin A]
- inhibition at 1 µM ([1]; read-out: % inhibition at 1 μM): ~95%

SMILES: C=C(C)[C@H]1Cc2c(ccc3c2O[C@@H]2COc4cc(OC)c(OC)cc4[C@@H]2C3=O)O1 [rotenone]
- inhibition at 2.3 µM ([1]; read-out: % inhibition at 2.3 μM): ~95%

SMILES: COC1=C(OC)C(=O)C(CC=C(C)C)=C(C)C1=O [Q1]
- NADH:Q1 oxidoreduction (subcomplex Iλ): Q1 reduction by subcomplex Iλ is independent of the presence of rotenone
